Assay results: patent publication US10344019B2 (priority 2010, dated 2019)
Read-outs that look alike come from different tables or passages of the source.

Legend:
Assay in all cases: microbe, parasite or virus in culture
Assay type in all cases: cell-based
[1] = system: HCV 2a JFH-1 Rluc cells (dicistronic genotype 2a JFH-1 replicon, RLuc reporter); conditions: genotype 2a JFH-1 replicon, read-out: 2a JFH
How it was run: (§1)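 Renilla luciferase HCV replicon cells: dicistronic 1b Con1, 1a H77 or 2a JFH-1 replicons, or a JFH-1 chimera carrying J6 NS5A (M31 present). Compound in DMSO serial dilutions, 72 h incubation, then lysis and luciferase read. EC50 by non-linear regression.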

[2] = system: HCV 1a RLuc cells (dicistronic genotype 1a H77 replicon, RLuc reporter); conditions: read-out: 1a
How it was run: as §1

[3] = system: HCV 3a RLuc cells (NS5A chimeric genotype 1b Con1 replicon with consensus genotype 3a NS5A gene)
How it was run: (§2)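 Replicon cells stably carrying the listed RLuc-encoding dicistronic replicons were seeded and treated with DMSO serial dilutions of compound (10 mM stocks) diluted into culture medium. After 72 h, cells were lysed and Renilla luciferase activity measured. EC50 was derived by non-linear regression.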

[4] = system: HCV 1b RLuc cells (dicistronic genotype 1b Con1 replicon, RLuc reporter)
How it was run: as §1

[5] = system: HCV 4a Rluc cells (NS5A chimeric genotype 1b Con1 replicon with genotype 4a NS5A gene); conditions: Hepatitis C virus, read-out: 4a
How it was run: as §2

[6] = Hepatitis C virus, RLuc reporter
[7] = Hepatitis C virus, genotype 1a H77 replicon, RLuc reporter
[8] = Hepatitis C virus, read-out: 3a, genotype 3a NS5A chimeric 1b Con1 replicon
[9] = Hepatitis C virus, read-out: 1b (nM)
[10] = genotype 1a H77 replicon, RLuc reporter
[11] = Hepatitis C virus, genotype 1a replicon
[12] = Hepatitis C virus, read-out: 3a, genotype 3a replicon

| Compound | EC50 [1, 6] [nM] | EC50 [2, 7] [nM] | EC50 [3, 8] [nM] | EC50 [4, 9] [nM] | EC50 [5] [nM] | EC50 [2, 10] [nM] | EC50 ([1]; RLuc reporter) [nM] | EC50 ([3]; read-out: 3a, genotype 3a NS5A chimeric 1b Con1 replicon) [nM] | EC50 ([4]; read-out: 1b) [nM] | EC50 ([1]; Hepatitis C virus) [nM] | EC50 [2, 11] [nM] | EC50 [3, 12] [nM] |
| --- | --- | --- | --- | --- | --- | --- | --- | --- | --- | --- | --- | --- |
| COC(=O)N[C@H](C(=O)N1CCC[C@H]1c1nc2c([nH]1)-c1ccc(-c3ccc4cc(-c5cnc([C@@H]6CCCN6C(=O)[C@H](NC(=O)CC6CCOCC6)c6ccccc6)[nH]5)ccc4c3)cc1CC2)C(C)C [Example 273] | 0.001 to 0.999 | 0.001 to 0.999 | 0.001 to 0.99 | 0.042 | 0.001 to 0.99 |  |  |  |  |  |  |  |
| COC(=O)N[C@H](C(=O)N1CCC[C@H]1c1ncc(-c2ccc3c(c2)cc(C#N)c2cc(-c4cnc([C@@H]5CCCN5C(=O)[C@@H](NC(=O)OC)C(C)C)[nH]4)ccc23)[nH]1)C(C)C [Example 274] | 1 to 44 | 1 to 44 | 1 to 4.99 | 0.011 | 0.001 to 0.99 |  |  |  |  |  |  |  |
| COC(=O)N[C@H](C(=O)N1CCC[C@H]1c1ncc(-c2ccc3cc(-c4ccc(-c5cnc([C@@H]6CCCN6C(=O)[C@@H](NC(=O)OCc6ccccc6)C6CCSCC6)[nH]5)cc4)ccc3c2)[nH]1)C(C)C [Example 275] | > 44 |  | > 5 | 2.15 | > 5 | 1 to 44 |  |  |  |  |  |  |
| COC(=O)N[C@H](C(=O)N1CCC[C@H]1c1ncc(-c2ccc3cc(-c4ccc(-c5cnc([C@@H]6CCCN6C(=O)[C@@H](N)C6CCSCC6)[nH]5)cc4)ccc3c2)[nH]1)C(C)C [Example 277] | > 44 | 1 to 44 | > 5 | 1.06 | 1 to 4.99 |  |  |  |  |  |  |  |
| COC(=O)N[C@H](C(=O)N1CCC[C@H]1c1ncc(-c2ccc3cc(-c4ccc(-c5cnc([C@@H]6CCCN6C(=O)[C@@H](NC(=O)OC)C6CCSCC6)[nH]5)cc4)ccc3c2)[nH]1)C(C)C [Example 278] | 0.001 to 0.999 | 0.001 to 0.999 | 1 to 4.99 | 0.013 | 0.001 to 0.99 |  |  |  |  |  |  |  |
| COC(=O)N[C@H](C(=O)N1CCC[C@H]1c1nc2c([nH]1)-c1ccc(-c3ccc4cc(-c5cnc([C@@H]6CCCN6C(=O)[C@H](NC(=O)OC)c6ccccc6)[nH]5)ccc4c3)cc1CC2)C1CCOCC1 [Example 279] |  |  |  |  | 0.001 to 0.99 | 1 to 44 | 1 to 44 | 0.001 to 0.99 | 0.031 |  |  |  |
| COC(=O)N[C@@H](C(=O)N1CCC[C@H]1c1ncc(-c2ccc3cc(-c4ccc5c(c4)CCc4nc([C@@H]6CCCN6C(=O)[C@@H](NC(=O)C6CC6)C6CCOCC6)[nH]c4-5)ccc3c2)[nH]1)c1ccccc1 [Example 280] | 1 to 44 | 1 to 44 | 0.001 to 0.99 | 0.047 | 0.001 to 0.99 |  |  |  |  |  |  |  |
| COC(=O)N[C@@H](C(=O)N1CCC[C@H]1c1ncc(-c2ccc3cc(-c4ccc5c(c4)CCc4nc([C@@H]6CCCN6C(=O)[C@@H](NC(O)OC)C6CCN(S(C)(=O)=O)CC6)[nH]c4-5)ccc3c2)[nH]1)c1ccccc1 (stereo partly drawn) [Example 281] | 0.001 to 0.999 | 0.001 to 0.999 | 0.001 to 0.99 | 0.063 | 0.001 to 0.99 |  |  |  |  |  |  |  |
| COC(=O)N[C@H](C(=O)N1[C@@H]2CC[C@@H](C2)[C@H]1c1nc2ccc3cc(C#Cc4ccc(-c5cnc([C@@H]6CCCN6C(=O)[C@H](NC(=O)OC)c6ccccc6)[nH]5)cc4)ccc3c2[nH]1)C1CCOCC1 [Example 283] | 0.001 to 0.999 | 0.001 to 0.999 | 0.001 to 0.99 | 0.007 | 0.001 to 0.99 |  |  |  |  |  |  |  |
| COC(=O)N[C@H](C(=O)N1CCC[C@H]1c1nc2c([nH]1)-c1ccc(-c3ccc4cc(-c5cnc([C@@H]6CCCN6C(=O)[C@H](NC(=O)OC)c6ccccc6)[nH]5)ccc4c3)cc1CC2)C1CCNCC1 [Example 284] | 1 to 44 | 1 to 44 | > 5 | 4.62 | 0.001 to 0.99 |  |  |  |  |  |  |  |
| COC(=O)N[C@H](C(=O)N1CCC[C@H]1c1nc2ccc3cc(-c4csc5cc(-c6cnc([C@@H]7CCCN7C(=O)[C@H](NC(=O)OC)c7ccccc7)[nH]6)ccc45)ccc3c2[nH]1)C(C)C [Example 285] | 0.001 to 0.999 | 0.001 to 0.999 | 0.001 to 0.99 | 0.006 | 0.001 to 0.99 |  |  |  |  |  |  |  |
| CCC(CC)[C@H](NC(=O)OC)C(=O)N1CCC[C@H]1c1ncc(-c2ccc3cc(-c4ccc(-c5cnc([C@@H]6CCCN6C(=O)[C@H](NC(=O)OC)c6ccccc6)[nH]5)cc4)ccc3c2)[nH]1 [Example 286] | 0.001 to 0.999 | 0.001 to 0.999 | 0.001 to 0.99 | 0.003 | 0.001 to 0.99 |  |  |  |  |  |  |  |
| COC(=O)N[C@H](C(=O)N1CCC[C@H]1c1nc2ccc3cc(-c4ccc5cc(-c6cnc([C@@H]7CCCN7C(=O)[C@H](NC(=O)C(C)(C)O)c7ccccc7)[nH]6)ccc5c4)ccc3c2[nH]1)C(C)C [Example 287] | 0.001 to 0.999 | 0.001 to 0.999 | 0.001 to 0.99 | 0.006 | 0.001 to 0.99 |  |  |  |  |  |  |  |
| COC(=O)N[C@H](C(=O)N1CCC[C@H]1c1nc2ccc3cc(-c4ccc5cc(-c6cnc([C@@H]7CCCN7C(=O)[C@H](NC(=O)N7CCOCC7)c7ccccc7)[nH]6)ccc5c4)ccc3c2[nH]1)C(C)C [Example 288] | 0.001 to 0.999 | 0.001 to 0.999 | 0.001 to 0.99 | 0.009 | 0.001 to 0.99 |  |  |  |  |  |  |  |
| COC(=O)N[C@H](C(=O)N1CCC[C@H]1c1nc2ccc3cc(-c4ccc5cc(-c6cnc([C@@H]7CCCN7C(=O)[C@H](NC(=O)OC7COC7)c7ccccc7)[nH]6)ccc5c4)ccc3c2[nH]1)C(C)C [Example 289] | 0.001 to 0.999 | 0.001 to 0.999 | 0.001 to 0.99 | 0.01 | 0.001 to 0.99 |  |  |  |  |  |  |  |
| COC(=O)N[C@H](C(=O)N1CCC[C@H]1c1nc2ccc3cc(-c4ccc5c(c4)CCc4nc([C@@H]6[C@H]7CC[C@H](C7)N6C(=O)[C@@H](NC(=O)OC)C(C)C)[nH]c4-5)ccc3c2[nH]1)C(C)C [Example 290] |  |  |  | 0.017 | 0.001 to 0.99 |  |  |  |  | 0.001 to 0.999 | 0.001 to 0.999 | 0.001 to 0.99 |
| COC(=O)N[C@H](C(=O)N1[C@@H]2CC[C@@H](C2)[C@H]1c1nc2c([nH]1)-c1ccc(-c3ccc4c(ccc5nc([C@@H]6CCCN6C(=O)[C@@H](NC(=O)OC)C6CCOCC6)[nH]c54)c3)cc1CC2)C(C)C [Example 291] |  |  |  | 0.103 | 0.001 to 0.99 |  |  |  |  | 0.001 to 0.999 | 0.001 to 0.999 | 0.001 to 0.99 |
| COC(=O)N[C@H](C(=O)N1[C@@H]2CC[C@@H](C2)[C@H]1c1nc2c([nH]1)-c1ccc(-c3ccc4c(ccc5nc([C@@H]6CCCN6C(=O)[C@@H](NC(=O)OC)[C@@H](C)OC)[nH]c54)c3)cc1CC2)C(C)C [Example 292] |  |  |  | 0.059 | 0.001 to 0.99 |  |  |  |  | 0.001 to 0.999 | 0.001 to 0.999 | 0.001 to 0.99 |
| COC(=O)N[C@H](C(=O)N1CCC[C@H]1c1ncc(-c2ccc3c4ccc(-c5cnc([C@@H]6CCCN6C(=O)[C@@H](NC(=O)OC)C6CCOCC6)[nH]5)cc4c4ccccc4c3c2)[nH]1)C(C)C [Example 293] |  |  |  | 0.042 | 0.001 to 0.99 |  |  |  |  | 0.001 to 0.999 | 0.001 to 0.999 | 0.001 to 0.99 |
| COC(=O)N[C@H](C(=O)N1CCC[C@H]1c1ncc(-c2ccc3c(c2)CCc2cc(-c4cnc([C@@H]5[C@H]6CC[C@H](C6)N5C(=O)[C@@H](c5ccccc5)N5CCOCC5)[nH]4)ccc2-3)[nH]1)C(C)C [Example 295] |  |  |  | 0.05 | 0.001 to 0.99 |  |  |  |  | 0.001 to 0.999 | 1 to 44 | 0.001 to 0.99 |
| COC(=O)N[C@H](C(=O)N1CCC[C@H]1c1nc2ccc3cc(-c4ccc(-c5cnc([C@@H]6CC7(CN6C(=O)[C@H](NC(=O)OC)c6ccccc6)OCCO7)[nH]5)cc4)ccc3c2[nH]1)C(C)C [Example 296] |  |  |  | 0.063 | 0.001 to 0.99 |  |  |  |  | 0.001 to 0.999 | 0.001 to 0.999 | 0.001 to 0.99 |
